How the values were obtained:
[1] = test system: acetylated H4 in Colo205 cells; assay: Histone H4 acetylation assay (western-blot); assay type: cell-based, human; design: key: “Active” means accumulation of acetylated histone was observed when compared with control (without compound); conditions: Colo205 cells, 0.1, 1, 5 and 10 μM, after 24 h
Experimental: Histone H3, H4 and H2A acetylation assay
A hallmark of histone deacetylase (HDAC) inhibition is the increase in the acetylation level of histones. Histone acetylation, including H3, H4 and H2A can be detected by immuno-blotting (western-blot). Colo205 cells, approximately 1.5×10^6 cells/10 cm dish, were seeded in the previously described medium, cultivated for 24 h and subsequently treated with HDAC inhibitory agents at 0.1, 1, 5 and 10 μM final concentration. After 24 h, cells were harvested and lysed according to the instruction from Sigma Mammalian Cell Lysis Kit. The protein concentration was quantified using BCA method (Sigma Pte Ltd). The protein lysate was separated using 4-12% bis-tris SDS-PAGE gel (Invitrogen Pte Ltd) and was transferred onto PVDF membrane (BioRad Pte Ltd). The membrane was probed separately using primary antibody specific for acetylated H3, acetylated H4 or acetylated H2A (Upstate Pte Ltd). The detection antibody, goat anti rabbit antibody conjugated with horse radish peroxidase (HRP) was used according to the manufacturing instruction (Pierce Pte Ltd). After removing the detection antibody from the membrane, an enhanced chemiluminescent substrate for detection of HRP (Pierce Pte Ltd) was added onto the membrane. After removing the substrate, the membrane was exposed to an X-ray film (Kodak) for 1 sec-20 mins. The X-ray film was developed using the X-ray film processor. The density of each band observed on the developed film could be analysed using UVP Bioimaging software (UVP, Inc, Upland, Calif.). The values were then normalized against the density of actin in the corresponding samples to obtain the expression of the protein.

[2] = test system: Colo205; assay: Cell-based proliferation assay for determination of GI50 values, colon cancer cell line; conditions: Homo sapiens, COLO 205; 96 h treatment, cyquant cell proliferation assay; read-out: Cellular activities GI50, Colo205
Experimental: (§1) Cell-based Proliferation assay for determination of GI50 values
(§2) Three different cancer cell lines were obtained from ATCC: Human colon cancer cell line (Colo205), human breast cancer cell lines (MDA-MB435), and human lung cancer cell line (NCl-H522). Colo205 cells and NCl-H522 were cultivated in RPMI 1640 containing 2 mM
(§3) L-Glutamine, 5% FBS, 1.0 mM Na Pyruvate. MDA-MB435 cells were cultivated in DMEM containing 2 mM L-Glutamine, 5% FBS. Colo205 cells were seeded in 96-wells plate at 2000 and 5000 cells per well respectively. MDA-MB435 and NCl-H522 cells were seeded in 96-wells plate at 6000 cells per well. The plates were incubated at 37° C., 5% CO2, for 24 h. Cells were treated with compounds at various concentrations for 96 h. Cell growth was then monitored using cyquant cell proliferation assay (Invitrogen Pte Ltd). Dose response curves were plotted to determine GI50 values for the compounds using XL-fit (ID Business Solution, Emeryville, Calif.).

[3] = test system: MDA-MB435; assay: Cell-based proliferation assay for determination of GI50 values, breast cancer cell line; conditions: Homo sapiens, MDA-MB-435; 96 h treatment, cyquant cell proliferation assay; read-out: Cellular activities GI50, MDA-MB435
Experimental: as §1, §2, §3

[4] = molecular target: T1, HDAC1 enzyme (GST-HDAC1) (Homo sapiens, UniProt Q13547); assay: In vitro HDAC assay for determination of IC50 values (BIOMOL fluorescent-based HDAC activity assay), HDAC1; assay type: biochemical; conditions: 600 nM HDAC1 enzyme, 500 μM Flur de lys generic substrate, room temperature 2 h
T1 construct: Amplification of human HDAC1 and HDAC8 coding region from this cDNA library; made in house; host or cells: SF9 insect cells (baculovirus, pDEST20 vector)
T1 sequence (Q13547 whole entry): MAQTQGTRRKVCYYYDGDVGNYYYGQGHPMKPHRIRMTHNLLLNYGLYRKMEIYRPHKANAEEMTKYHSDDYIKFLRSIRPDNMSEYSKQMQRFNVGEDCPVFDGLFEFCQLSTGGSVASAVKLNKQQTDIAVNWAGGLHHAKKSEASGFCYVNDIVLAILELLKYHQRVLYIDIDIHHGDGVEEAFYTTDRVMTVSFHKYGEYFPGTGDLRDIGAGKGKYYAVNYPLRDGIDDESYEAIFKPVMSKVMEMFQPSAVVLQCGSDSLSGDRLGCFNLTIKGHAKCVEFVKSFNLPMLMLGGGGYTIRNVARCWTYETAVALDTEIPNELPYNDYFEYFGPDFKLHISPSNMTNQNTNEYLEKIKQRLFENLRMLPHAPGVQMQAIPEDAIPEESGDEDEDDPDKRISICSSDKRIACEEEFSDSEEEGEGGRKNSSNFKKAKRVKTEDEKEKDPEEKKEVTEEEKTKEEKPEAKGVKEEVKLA
Experimental: Recombinant GST-HDAC1 and GST-HDAC-8 Protein expression and purification
Human cDNA library was prepared using cultured SW620 cells. Amplification of human HDAC1 and HDAC8 coding region from this cDNA library was cloned separately into the baculovirus expression pDEST20 vector and pFASTBAC vector respectively (GATEWAY Cloning Technology, Invitrogen Pte Ltd). The pDEST20-HDAC1 and pFASTBAC-HTGST-HDAC8 constructs were confirmed by DNA sequencing. Recombinant baculovirus was prepared using the Bac-To-Bac method following the manufacturer's instruction (Invitrogen Pte Ltd). Baculovirus titer was determined by plaque assay to be about 10^8 PFU/ml.
Expression of GST-HDAC1 or HTGST-HDAC8 was done by infecting SF9 cells (Invitrogen Pte Ltd) with pDEST20-HDAC1 or pFASTBAC-GST-HDAC8 baculovirus at MOI=1 for 48 h. Soluble cell lysate was incubated with pre-equilibrated Glutathione Sepharose 4B beads (Amersham) at 4° C. for 2 h. The beads were washed with PBS buffer for 3 times. The GST-HDAC1 protein or GST-HDAC8 protein was eluted by elution buffer containing 50 mM Tris, pH8.0, 150 mM NaCl, 1% Triton X-100 and 10 mM or 20 mM reduced Glutathione. The purified GST-HDAC1 protein or purified GST-HDAC8 protein was dialyzed with HDAC storage buffer containing 10 mM Tris, pH7.5, 100 mM NaCl and 3 mM MgCl2. 20% Glycerol was added to purified GST-HDAC1 protein or purified GST-HDAC8 before storage at −80° C.
In vitro HDAC assay for determination of IC50 values
The assay has been carried out in 96 well format and the BIOMOL fluorescent-based HDAC activity assay has been applied. The reaction composed of assay buffer, containing 25 mM Tris pH 7.5, 137 mM NaCl, 2.7 mM KCl, 1 mM MgCl2, 1 mg/ml BSA, tested compounds, 500 nM HDAC8 enzyme or 600 nM HDAC1 enzyme, 200 μM Flur de lys p53 peptide substrate for HDAC8 enzyme or 500 μM Flur de lys generic substrate for HDAC1 enzyme and subsequently was incubated at room temperature for 2 h. Flur de lys Developer was added and the reaction was incubated for 10 min. Briefly, deacetylation of the substrate sensitizes it to the developer, which then generates a fluorophore The fluorophore is excited with 360 nm light and the emitted light (460 nm) is detected on a fluorometric plate reader (Tecan Ultra Microplate detection system, Tecan Group Ltd.).
The analytical software, Prism 3.0® (GraphPad Software Inc) has been used to generate IC50 from a series of data.

Row | GI50 [2] [µM] | GI50 [3] [nM] | IC50 [4] [nM] | Structure (SMILES) | Histone 4 acetylation [1]
1 | 2.39 | 1490 | 200 | O=C(NO)c1ccc(-c2ccc(CNCCc3ccccn3)cc2)s1 [Example 27] | Active
2 | 7.72 | 4460 | 510 | Nc1nc(-c2ccc(/C=C/C(=O)NO)cc2)cs1 [Example 23, 3-[4-(2-Amino-thiazol-4-yl)-phenyl]-N-hydroxy-acrylamide] | Active
3 | 12.1 |  | > 100000 | O=C(Cc1ccc(-c2csc(NC(=O)Cc3ccccc3)n2)s1)NO [Example 1, N-Hydroxy-2-[5-(2-phenylacetylamino-thiazol-4-yl)-thiophen-2-yl]-acetamide] | 
4 | 1.86 | 2660 | 66 | O=C(NO)c1ccc(-c2ccc(CNCCc3ccccc3)cc2)s1 [Example 26, 5-[4-(Phenethylamino-methyl)-phenyl]-thiophene-2-carboxylic acid hydroxyamide] | Active

— patent US20070167499A1, “Biaryl linked hydroxamates: preparation and pharmaceutical applications” (A*BIO Pte Ltd., priority 2003, published 2007)
